Target: P. falciparum apicoplast DNA polymerase (Pf-apPOL) (Plasmodium falciparum, UniProt Q8ILY1)
Assay: Fluorescence-based high-throughput DNA polymerase assay (molecular beacon), primary screen and dose-response;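 on % inhibition ApPOL 90': test concentration in µM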;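 on % inhibition apPOL 180': test concentration in µM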
Assay type: biochemical
Summary of the method: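 Single-point screening used 10 µM compound with 20 nM polymerase, 20 nM hairpin substrate and 6 µM dNTPs for 90 min at 25 °C. Confirmatory titrations (2.5–80 µM) followed fluorescence at three times, and IC50 was derived from a fit including a cooperativity term n.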

[1] = primary screen value of the 186 hits; unit not given; 90 min, 10 µM

Sequence of P. falciparum apicoplast DNA polymerase (Pf-apPOL) (Q8ILY1 entry or part of it): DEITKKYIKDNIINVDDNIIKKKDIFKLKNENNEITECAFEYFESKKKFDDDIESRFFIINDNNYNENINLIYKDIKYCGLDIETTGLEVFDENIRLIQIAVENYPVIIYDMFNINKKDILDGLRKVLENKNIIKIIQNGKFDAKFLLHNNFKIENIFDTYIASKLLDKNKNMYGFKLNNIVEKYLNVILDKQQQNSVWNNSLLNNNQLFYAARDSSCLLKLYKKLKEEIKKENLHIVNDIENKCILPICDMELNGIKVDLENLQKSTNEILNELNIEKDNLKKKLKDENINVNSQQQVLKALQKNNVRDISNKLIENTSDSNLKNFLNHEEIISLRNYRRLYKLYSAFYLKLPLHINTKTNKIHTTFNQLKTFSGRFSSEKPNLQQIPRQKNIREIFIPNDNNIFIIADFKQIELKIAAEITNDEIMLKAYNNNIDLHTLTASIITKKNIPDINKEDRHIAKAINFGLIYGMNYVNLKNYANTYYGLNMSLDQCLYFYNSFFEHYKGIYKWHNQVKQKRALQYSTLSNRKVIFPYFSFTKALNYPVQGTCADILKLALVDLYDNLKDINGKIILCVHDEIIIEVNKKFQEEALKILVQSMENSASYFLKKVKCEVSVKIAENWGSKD

COC(=O)c1sc(-c2ccc(C(C)(C)C)cc2)cc1NC(=O)CCC(=O)O [Molecule 87, COC(=O)c1sc(cc1NC(=O)CCC(=O)O)c1ccc(cc1)C(C)(C)C]
DNA Pol ('DNA Pol' of the 186 hits list (screen value); 90 min, 10 µM): 96 | % inhibition Apo pol 10' (DRC-1; 10'; conc 2.5): 19.7971% | % inhibition Apo pol 10' (DRC-1; 10'; conc 5): 30.0237% | % inhibition Apo pol 10' (DRC-1; 10'; conc 10): 55.209% | % inhibition Apo pol 10' (DRC-1; 10'; conc 20): 85.0828% | % inhibition Apo pol 10' (DRC-1; 10'; conc 40): 94.7696% | % inhibition Apo pol 10' (DRC-1; 10'; conc 80): 96.2943% | % inhibition Apol 90' (DRC-1; 90'; conc 2.5): 13.7781% | % inhibition Apol 90' (DRC-1; 90'; conc 5): 20.5036% | % inhibition Apol 90' (DRC-1; 90'; conc 10): 48.04% | % inhibition Apol 90' (DRC-1; 90'; conc 20): 81.7697% | % inhibition Apol 90' (DRC-1; 90'; conc 40): 91.7617% | % inhibition Apol 90' (DRC-1; 90'; conc 80): 95.9877% | % inhibition apPOL 180' (DRC-1; 180'; conc 2.5): 10.0944% | % inhibition apPOL 180' (DRC-1; 180'; conc 5): 11.9548% | % inhibition apPOL 180' (DRC-1; 180'; conc 10): 36.7594% | % inhibition apPOL 180' (DRC-1; 180'; conc 20): 75.8676% | % inhibition apPOL 180' (DRC-1; 180'; conc 40): 89.861% | % inhibition apPOL 180' (DRC-1; 180'; conc 80): 95.0797% | % inhibition Apo pol 5' (DRC-2; 5'; conc 2.5): 12% | % inhibition Apo pol 5' (DRC-2; 5'; conc 5): 9% | % inhibition Apo pol 5' (DRC-2; 5'; conc 10): 35% | % inhibition Apo pol 5' (DRC-2; 5'; conc 20): 50% | % inhibition Apo pol 5' (DRC-2; 5'; conc 40): 60% | % inhibition Apo pol 5' (DRC-2; 5'; conc 80): 59% | % inhibition Apo pol 5' (DRC-2; 5'; concentration 5): 9% | % inhibition Apol 40' (DRC-2; 40'; conc 2.5): 11% | % inhibition Apol 40' (DRC-2; 40'; conc 5): 9% | % inhibition Apol 40' (DRC-2; 40'; conc 10): 40% | % inhibition Apol 40' (DRC-2; 40'; conc 20): 61% | % inhibition Apol 40' (DRC-2; 40'; conc 40): 72% | % inhibition Apol 40' (DRC-2; 40'; conc 80): 72% | % inhibition Apol 40' (DRC-2; 40'; concentration 5): 9% | % inhibition Apol 40' (DRC-2; 40'; concentration 40): 72% | % inhibition Apol 40' (DRC-2; 40'; concentration 80): 72% | % inhibition ApPOL 90' (DRC-2; 90'; conc 2.5): 9% | % inhibition ApPOL 90' (DRC-2; 90'; conc 5): 7% | % inhibition ApPOL 90' (DRC-2; 90'; conc 10): 38% | % inhibition ApPOL 90' (DRC-2; 90'; conc 20): 62% | % inhibition ApPOL 90' (DRC-2; 90'; conc 40): 74% | % inhibition ApPOL 90' (DRC-2; 90'; conc 80): 75% | % inhibition ApPOL 90' (DRC-2; 90'; concentration 2.5): 9% | % inhibition apPOL 180' (DRC-2; 180'; conc 2.5): 6% | % inhibition apPOL 180' (DRC-2; 180'; conc 5): 4% | % inhibition apPOL 180' (DRC-2; 180'; conc 10): 32% | % inhibition apPOL 180' (DRC-2; 180'; conc 20): 57% | % inhibition apPOL 180' (DRC-2; 180'; conc 40): 72% | % inhibition apPOL 180' (DRC-2; 180'; conc 80): 73% | % inhibition apPOL 180' (DRC-2; 180'; concentration 40): 72% | DNA Pol (primary screen value, "DNA Pol"; 90 min, 10 µM): 96

Cc1cc(C)nc(Nc2nc(CC(=O)Nc3nc(-c4ccco4)cs3)cs2)n1 [Molecule 92, O=C(Nc1scc(n1)c1ccco1)Cc1csc(n1)Nc1nc(C)cc(n1)C]
% inhibition Apo pol 10' (DRC-1; concentration 2.5; 10'): -6.381% | % inhibition Apol 90' (DRC-1; concentration 2.5; 90'): -8.504% | % inhibition apPOL 180' (DRC-1; concentration 2.5; 180'): -14.5806% | % inhibition Apo pol 10' (DRC-1; concentration 5; 10'): 13.7887% | % inhibition Apol 90' (DRC-1; concentration 5; 90'): 3.55% | % inhibition apPOL 180' (DRC-1; concentration 5; 180'): -5.24% | % inhibition Apo pol 10' (DRC-1; concentration 10; 10'): 59.5511% | % inhibition Apol 90' (DRC-1; concentration 10; 90'): 43.4607% | % inhibition apPOL 180' (DRC-1; concentration 10; 180'): 29.1586% | % inhibition Apo pol 10' (DRC-1; concentration 20; 10'): 80.2022% | % inhibition Apol 90' (DRC-1; concentration 20; 90'): 69.8736% | % inhibition apPOL 180' (DRC-1; concentration 20; 180'): 60.6937% | % inhibition Apo pol 10' (DRC-1; concentration 40; 10'): 86.2847% | % inhibition Apol 90' (DRC-1; concentration 40; 90'): 85.2413% | % inhibition apPOL 180' (DRC-1; concentration 40; 180'): 83.5937% | % inhibition Apo pol 10' (DRC-1; concentration 80 (unit not given); 10'): 83.354% | % inhibition Apol 90' (DRC-1; concentration 80; 90'): 86.9682% | % inhibition apPOL 180' (DRC-1; concentration 80; 180'): 88.1815% | % inhibition Apo pol 5' (DRC-2; 5'; concentration 5): 6% | % inhibition Apo pol 5' (DRC-2; 5'; concentration 40): 41% | % inhibition Apol 40' (DRC-2; 40'; concentration 10): 41% | % inhibition Apol 40' (DRC-2; 40'; concentration 20): 59% | % inhibition Apol 40' (DRC-2; 40'; concentration 80): 59% | % inhibition ApPOL 90' (DRC-2; 90'; concentration 5): 6% | % inhibition Apo pol 5' (DRC-2; concentration 2.5; 5'): 7% | % inhibition Apol 40' (DRC-2; concentration 2.5; 40'): 9% | % inhibition ApPOL 90' (DRC-2; concentration 2.5; 90'): 7.61% | % inhibition apPOL 180' (DRC-2; concentration 2.5; 180'): 3.63% | % inhibition Apo pol 5' (DRC-2; concentration 5; 5'): 6% | % inhibition Apol 40' (DRC-2; concentration 5; 40'): 5.45% | % inhibition ApPOL 90' (DRC-2; concentration 5; 90'): 6% | % inhibition apPOL 180' (DRC-2; concentration 5; 180'): 0.203% | % inhibition Apo pol 5' (DRC-2; concentration 10; 5'): 37% | % inhibition Apol 40' (DRC-2; concentration 10; 40'): 41% | % inhibition ApPOL 90' (DRC-2; concentration 10; 90'): 39% | % inhibition apPOL 180' (DRC-2; concentration 10; 180'): 30% | % inhibition Apo pol 5' (DRC-2; concentration 20; 5'): 43% | % inhibition Apol 40' (DRC-2; concentration 20; 40'): 59% | % inhibition ApPOL 90' (DRC-2; concentration 20; 90'): 60% | % inhibition apPOL 180' (DRC-2; concentration 20; 180'): 57% | % inhibition Apo pol 5' (DRC-2; concentration 40; 5'): 41% | % inhibition Apol 40' (DRC-2; concentration 40; 40'): 65% | % inhibition ApPOL 90' (DRC-2; concentration 40; 90'): 70% | % inhibition apPOL 180' (DRC-2; concentration 40; 180'): 74% | % inhibition Apo pol 5' (DRC-2; concentration 80; 5'): 29% | % inhibition Apol 40' (DRC-2; concentration 80; 40'): 59% | % inhibition ApPOL 90' (DRC-2; concentration 80; 90'): 66% | % inhibition apPOL 180' (DRC-2; concentration 80; 180'): 73% | DNA Pol [1]: 70 | DNA Pol (primary screen value; head prints only 'DNA Pol'; 90 min, 10 µM): 70

CCOc1cccc2cc(C(=O)Nc3nnc(-c4ccno4)o3)oc12 [Molecule 28]
IC50 (supplemental file 2, sheet IC50 nontoxic compounds; Pf-apPOL): 7.04 µM

O=C(CSc1nnc(-c2ccncc2)[nH]1)c1ccc(O)c(O)c1 [Molecule 89, O=C(c1ccc(c(c1)O)O)CSc1nnc([nH]1)c1ccncc1]
% inhibition Apo pol 10' (DRC-1; 10'; concentration 2.5): 60.0938% | % inhibition Apo pol 10' (DRC-1; 10'; concentration 5): 82.0224% | % inhibition Apo pol 10' (DRC-1; 10'; concentration 10): 88.031% | % inhibition Apo pol 10' (DRC-1; 10'; concentration 20): 91.1846% | % inhibition Apo pol 10' (DRC-1; 10'; concentration 40): 93.0486% | % inhibition Apo pol 10' (DRC-1; 10'; concentration 80): 94.9385% | % inhibition Apol 90' (DRC-1; 90'; concentration 2.5): 43.8309% | % inhibition Apol 90' (DRC-1; 90'; concentration 5): 70.0142% | % inhibition Apol 90' (DRC-1; 90'; concentration 10): 80.3522% | % inhibition Apol 90' (DRC-1; 90'; concentration 20): 84.6554% | % inhibition Apol 90' (DRC-1; 90'; concentration 40): 86.229% | % inhibition Apol 90' (DRC-1; 90'; concentration 80): 90.5693% | % inhibition apPOL 180' (DRC-1; 180'; concentration 2.5): 29.303% | % inhibition apPOL 180' (DRC-1; 180'; concentration 5): 56.5831% | % inhibition apPOL 180' (DRC-1; 180'; concentration 10): 70.7438% | % inhibition apPOL 180' (DRC-1; 180'; concentration 20): 76.8269% | % inhibition apPOL 180' (DRC-1; 180'; concentration 40): 78.119% | % inhibition apPOL 180' (DRC-1; 180'; concentration 80): 84.9374% | % inhibition Apo pol 5' (DRC-2; 5'; concentration 2.5): 47% | % inhibition Apo pol 5' (DRC-2; 5'; concentration 5): 49% | % inhibition Apo pol 5' (DRC-2; 5'; concentration 10): 52% | % inhibition Apo pol 5' (DRC-2; 5'; concentration 20): 53% | % inhibition Apo pol 5' (DRC-2; 5'; concentration 40): 57% | % inhibition Apo pol 5' (DRC-2; 5'; concentration 80): 58% | % inhibition Apol 40' (DRC-2; 40'; concentration 2.5): 53% | % inhibition Apol 40' (DRC-2; 40'; concentration 5): 62% | % inhibition Apol 40' (DRC-2; 40'; concentration 10): 68% | % inhibition Apol 40' (DRC-2; 40'; concentration 20): 71% | % inhibition Apol 40' (DRC-2; 40'; concentration 40): 76% | % inhibition Apol 40' (DRC-2; 40'; concentration 80): 78% | % inhibition ApPOL 90' (DRC-2; 90'; concentration 2.5): 50% | % inhibition ApPOL 90' (DRC-2; 90'; concentration 5): 62% | % inhibition ApPOL 90' (DRC-2; 90'; concentration 10): 69% | % inhibition ApPOL 90' (DRC-2; 90'; concentration 20): 73% | % inhibition ApPOL 90' (DRC-2; 90'; concentration 40): 78% | % inhibition ApPOL 90' (DRC-2; 90'; concentration 80): 80% | % inhibition apPOL 180' (DRC-2; 180'; concentration 2.5): 34% | % inhibition apPOL 180' (DRC-2; 180'; concentration 5): 53% | % inhibition apPOL 180' (DRC-2; 180'; concentration 10): 63% | % inhibition apPOL 180' (DRC-2; 180'; concentration 20): 68% | % inhibition apPOL 180' (DRC-2; 180'; concentration 40): 76% | % inhibition apPOL 180' (DRC-2; 180'; concentration 80): 80% | % inhibition Apol 40' (conc. 2.5; 40'; DRC-2): 53% | % inhibition Apol 40' (conc. 5; 40'; DRC-2): 62% | % inhibition ApPOL 90' (conc. 5; 90'; DRC-2): 62% | % inhibition apPOL 180' (conc. 5; 180'; DRC-2): 53% | % inhibition Apol 40' (conc. 10; 40'; DRC-2): 68% | % inhibition Apo pol 5' (conc. 20; 5'; DRC-2): 53% | % inhibition apPOL 180' (conc. 20; 180'; DRC-2): 68% | % inhibition Apol 40' (conc. 40; 40'; DRC-2): 76% | % inhibition ApPOL 90' (conc. 40; 90'; DRC-2): 78% | % inhibition apPOL 180' (conc. 40; 180'; DRC-2): 76% | % inhibition Apol 40' (conc. 80; 40'; DRC-2): 78% | % inhibition ApPOL 90' (conc. 80; 90'; DRC-2): 80% | % inhibition apPOL 180' (conc. 80; 180'; DRC-2): 80% | DNA Pol (primary screen value by plate and well; 90 min, 10 µM): 90 | DNA Pol [1]: 90
